Target: Btk (Homo sapiens (Human), UniProt Q06187)
Assay: Btk kinase assay (ADP-Glo)
Type: biochemical
Details: ATP 1.2 μM, 60 minutes, room temperature; read-out: BTK enzyme IC50
Description: The Btk kinase assay was performed using a ADP-Glo Btk kinase assay kit purchased from Promega (Madison, Wis.). The assay was conducted according to the protocols provided in the assay kit. In brief, the enzyme reaction was carried out in the kinase reaction buffer containing Btk (2 ng/μl), ATP (1.2 μM), poly GT peptide (0.3 μM), DTT (40 nM), MnCl2 (1.4 mM), and 1×kinase buffer (included in the kit) in the presence or absence of the tested articles at various concentrations in 384-well plate at room temperature (22±1° C.) for 60 minutes. The final reaction volume for each reaction was 10 μl. Then, 4 μl of ADP-Glo reagent (included in the kit) was added into the reaction and the plate was further incubated for another 40 minutes to terminate the reaction and deplete the remaining ATP. Finally, 10 μl of the kinase detection reagent was added into each reaction to simultaneously convert ADP to ATP and allow the newly synthesized ATP to be measured by a plate-reading luminometer (Victor X5 2030 multilabel reader, PerkinElmer). IC50 value was calculated using appropriate programs in GraphPad Prism by plotting the logarithm of the concentration versus percent inhibition as compared with a vehicle (DMSO) control.

Sequence of Btk (Q06187 whole entry): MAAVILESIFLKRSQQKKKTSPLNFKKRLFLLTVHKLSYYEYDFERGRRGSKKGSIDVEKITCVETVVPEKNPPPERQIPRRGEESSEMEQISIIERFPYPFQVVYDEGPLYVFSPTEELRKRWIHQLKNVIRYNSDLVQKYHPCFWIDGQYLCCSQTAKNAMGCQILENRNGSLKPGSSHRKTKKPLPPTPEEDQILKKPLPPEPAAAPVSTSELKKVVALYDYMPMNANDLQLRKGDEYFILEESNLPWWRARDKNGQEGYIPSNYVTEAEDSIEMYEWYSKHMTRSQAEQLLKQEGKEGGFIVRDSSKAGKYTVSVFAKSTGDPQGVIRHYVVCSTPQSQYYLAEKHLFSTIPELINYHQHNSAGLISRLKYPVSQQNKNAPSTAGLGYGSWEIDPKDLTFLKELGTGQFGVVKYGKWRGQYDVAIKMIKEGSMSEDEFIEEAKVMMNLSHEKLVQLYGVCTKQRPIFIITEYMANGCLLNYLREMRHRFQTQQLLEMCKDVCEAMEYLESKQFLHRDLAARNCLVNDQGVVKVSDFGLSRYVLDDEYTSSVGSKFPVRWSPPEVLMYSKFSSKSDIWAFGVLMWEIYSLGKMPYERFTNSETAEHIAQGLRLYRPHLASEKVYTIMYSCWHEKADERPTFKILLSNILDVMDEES

| SMILES | IC50 [nM] |
| --- | --- |
| CN(C)C/C=C/C(=O)N1CC(n2cc(-c3ccc(Oc4ccccc4)cc3)c3c(N)n[nH]c(=O)c32)C1 [Example 40, 4-amino-1-[1-[(E)-4-(dimethylamino)but-2-enoyl]azetidin-3-yl]-3-(4-phenoxyphenyl)-6H-pyrrolo[2,3-d]pyridazin-7-one] | 10 to 1000 |
| Nc1n[nH]c(=O)c2c1c(-c1ccc(Oc3ccccc3)cc1)cn2[C@@H]1CCCN(C(=O)CCl)C1 [Example 22, 4-amino-1-[(3R)-1-(2-chloroacetyl)-3-piperidyl]-3-(4-phenoxyphenyl)-6H-pyrrolo[2,3-d]pyridazin-7-one] | 10 to 1000 |
| C=CC(=O)Nc1cccc(-n2cc(-c3ccc(Oc4ccccc4)cc3)c3c(N)n[nH]c(=O)c32)c1 [Example 88, N-(3-(4-amino-7-oxo-3-(4-phenoxyphenyl)-6,7-dihydro-1H-pyrrolo[2,3-d]pyridazin-1-yl)phenyl)acrylamide] | ≤ 10 |
| C/C=C/C(=O)N1CCC[C@@H](n2cc(-c3ccc(Oc4ccccc4)cc3)c3c(N)n[nH]c(=O)c32)C1 [Example 25, 4-amino-1-[(3R)-1-[(E)-but-2-enoyl]-3-piperidyl]-3-(4-phenoxyphenyl)-6H-pyrrolo[2,3-d]pyridazin-7-one] | 10 to 1000 |
| C=CC(=O)N1CCC[C@H]1Cn1cc(-c2ccc(Oc3ccccc3)cc2)c2c(N)n[nH]c(=O)c21 [Example 6, 4-amino-3-(4-phenoxyphenyl)-1-[[(2S)-1-prop-2-enoylpyrrolidin-2-yl]methyl]-6H-pyrrolo[2,3-d]pyridazin-7-one] | 10 to 1000 |
| C=CC(=O)N1CCC[C@@H](n2cc(-c3ccc(Oc4ccccc4)cc3)c3c(N)n[nH]c(=O)c32)C1 [Example 1, (R)-1-(1-acryloylpiperidin-3-yl)-4-amino-3-(4-phenoxyphenyl)-1H-pyrrolo[2,3-d]pyridazin-7(6H)-one] | ≤ 10 |
| N#CN1CC[C@@H](n2cc(-c3ccc(Oc4ccccc4)cc3)c3c(N)n[nH]c(=O)c32)C1 [Example 107, (R)-3-(4-amino-7-oxo-3-(4-phenoxyphenyl)-6,7-dihydro-1H-pyrrolo[2,3-d]pyridazin-1-yl)pyrrolidine-1-carbonitrile] | ≤ 10 |
| CN(C)C/C=C/C(=O)N1CCC[C@@H](n2cc(-c3ccc(Oc4ccccc4)c(F)c3)c3c(N)n[nH]c(=O)c32)C1 [Example 75, 4-amino-1-[(3R)-1-[(E)-4-(dimethylamino)but-2-enoyl]-3-piperidyl]-3-(3-fluoro-4-phenoxy-phenyl)-6H-pyrrolo[2,3-d]pyridazin-7-one] | ≤ 10 |
| C=CC(=O)N[C@H]1CC[C@@H](n2cc(-c3ccc(Oc4ccccc4F)cc3)c3c(N)n[nH]c(=O)c32)CC1 [Example 104, N-((1s,4s)-4-(4-amino-3-(4-(2-fluorophenoxy)phenyl)-7-oxo-6,7-dihydro-1H-pyrrolo[2,3-d]pyridazin-1-yl)cyclohexyl)acrylamide] | 10 to 1000 |
| C=CC(=O)N1CCC[C@@H](n2nc(-c3ccc(Oc4ccccc4F)cc3)c3c(N)n[nH]c(=O)c32)C1 [Example 109, (R)-1-(1-acryloylpiperidin-3-yl)-4-amino-3-(4-(2-fluorophenoxy)phenyl)-1H-pyrazolo[3,4-d]pyridazin-7(6H)-one] | 10 to 1000 |
| CN(C)C/C=C/C(=O)N1C[C@H](n2cc(-c3ccc(Oc4ccccc4)cc3)c3c(N)n[nH]c(=O)c32)CC(F)(F)C1 [Example 49, 4-amino-1-[(3R)-1-[(E)-4-(dimethylamino)but-2-enoyl]-5,5-difluoro-3-piperidyl]-3-(4-phenoxyphenyl)-6H-pyrrolo[2,3-d]pyridazin-7-one] | 10 to 1000 |
| C=CC(=O)N1CCC[C@@H](n2c(Cl)c(-c3ccc(Oc4ccccc4)cc3)c3c(N)n[nH]c(=O)c32)C1 [Example 80, (R)-1-(1-acryloylpiperidin-3-yl)-4-amino-2-chloro-3-(4-phenoxyphenyl)-1H-pyrrolo[2,3-d]pyridazin-7(6H)-one] | 10 to 1000 |
| CN(C)CC#CC(=O)N1CC[C@@H](n2cc(-c3ccc(Oc4ccccc4F)cc3)c3c(N)n[nH]c(=O)c32)C1 [Example 99, (R)-4-amino-1-(1-(4-(dimethylamino)but-2-ynoyl)pyrrolidin-3-yl)-3-(4-(2-fluorophenoxy)phenyl)-1H-pyrrolo[2,3-d]pyridazin-7(6H)-one] | ≤ 10 |
| C=CC(=O)N1CCC[C@@H]1Cn1cc(-c2ccc(Oc3ccccc3)cc2)c2c(N)n[nH]c(=O)c21 [Example 7, 4-amino-3-(4-phenoxyphenyl)-1-[[(2R)-1-prop-2-enoylpyrrolidin-2-yl]methyl]-6H-pyrrolo[2,3-d]pyridazin-7-one] | 1000 to 100000 |
| N#CN1CCC[C@@H](n2cc(-c3ccc(Oc4ccccc4)cc3)c3c(N)n[nH]c(=O)c32)C1 [Example 20, (R)-3-(4-amino-7-oxo-3-(4-phenoxyphenyl)-6,7-dihydro-1H-pyrrolo[2,3-d]pyridazin-1-yl)piperidine-1-carbonitrile] | 10 to 1000 |

Continued, values first:

| IC50 [nM] | SMILES |
| --- | --- |
| 10 to 1000 | C=CC(=O)N1CCCC(n2cc(-c3ccc(Oc4ccc(Cl)cc4)cc3)c3c(N)n[nH]c(=O)c32)C1 (centres unmarked) [Example 64, 1-(1-acryloylpiperidin-3-yl)-4-amino-3-(4-(4-chlorophenoxy)phenyl)-1H-pyrrolo[2,3-d]pyridazin-7(6H)-one] |
| ≤ 10 | CN(C)C/C=C/C(=O)N1CCCC(n2cc(-c3ccc(Oc4ccccc4)cc3)c3c(N)n[nH]c(=O)c32)C1 (centres unmarked) [Example 38, 4-amino-1-[1-[(E)-4-(dimethylamino)but-2-enoyl]-3-piperidyl]-3-(4-phenoxyphenyl)-6H-pyrrolo[2,3-d]pyridazin-7-one] |
| ≤ 10 | COc1ccc(-c2cn(C3CCCN(C(=O)/C=C/CN(C)C)C3)c3c(=O)[nH]nc(N)c23)cc1 (centres unmarked) [Example 52, 4-amino-1-[1-[(E)-4-(dimethylamino)but-2-enoyl]-3-piperidyl]-3-(4-methoxyphenyl)-6H-pyrrolo[2,3-d]pyridazin-7-one] |
| ≤ 10 | CN(C)C/C=C/C(=O)N1CC[C@@H](n2cc(-c3ccc(Oc4ccccc4)cc3)c3c(N)n[nH]c(=O)c32)C1 [Example 39, 4-amino-1-[(3R)-1-[(E)-4-(dimethylamino)but-2-enoyl]pyrrolidin-3-yl]-3-(4-phenoxyphenyl)-6H-pyrrolo[2,3-d]pyridazin-7-one] |
| 10 to 1000 | CN(C/C=C/C(=O)N1CCC[C@@H](n2cc(-c3ccc(Oc4ccccc4)cc3)c3c(N)n[nH]c(=O)c32)C1)C1CC1 [Example 29, 4-amino-1-[(3R)-1-[(E)-4-(cyclopropyl(methyl)amino)but-2-enoyl]-3-piperidyl]-3-(4-phenoxyphenyl)-6H-pyrrolo[2,3-d]pyridazin-7-one] |
| 10 to 1000 | C/C=C/C(=O)N1CCC[C@@H](n2cc(-c3ccc(Oc4c(F)cccc4F)cc3)c3c(N)n[nH]c(=O)c32)C1 [Example 116, 4-amino-3-[4-(2,6-difluorophenoxy)phenyl]-1-[(3R)-1-[(E)-but-2-enoyl]-3-piperidyl]-6H-pyrrolo[2,3-d]pyridazin-7-one] |
| ≤ 10 | C=CC(=O)N1CCC(F)C(n2cc(-c3ccc(Oc4ccccc4)cc3)c3c(N)n[nH]c(=O)c32)C1 (centres unmarked) [Example 13, 1-(1-acryloyl-4-fluoropiperidin-3-yl)-4-amino-3-(4-phenoxyphenyl)-1H-pyrrolo[2,3-d]pyridazin-7(6H)-one] |
| 10 to 1000 | CCC(=O)N1CCC[C@@H](n2cc(-c3ccc(Oc4c(F)cccc4F)cc3)c3c(N)n[nH]c(=O)c32)C1 [Example 115, (R)-4-amino-3-(4-(2,6-difluorophenoxy)phenyl)-1-(1-propionylpiperidin-3-yl)-1H-pyrrolo[2,3-d]pyridazin-7(6H)-one] |
| 10 to 1000 | C=CC(=O)N1CCC[C@@H](n2cc(-c3ccc(Oc4ccccc4Cl)cc3)c3c(N)n[nH]c(=O)c32)C1 [Example 70, (R)-1-(1-acryloylpiperidin-3-yl)-4-amino-3-(4-(2-chlorophenoxy)phenyl)-1H-pyrrolo[2,3-d]pyridazin-7(6H)-one] |
| 1000 to 100000 | CC#CC(=O)N1CCCC(n2cc(-c3ccc(Oc4ccccc4)cc3)c3c(N)n[nH]c(=O)c32)C1 (centres unmarked) [Example 21, 4-amino-1-(1-(but-2-ynoyl)piperidin-3-yl)-3-(4-phenoxyphenyl)-1H-pyrrolo[2,3-d]pyridazin-7(6H)-one] |
| ≤ 10 | C=CC(=O)N1C[C@H](n2cc(-c3ccc(Oc4ccccc4)cc3)c3c(N)n[nH]c(=O)c32)CC(F)(F)C1 [Example 14, (R)-1-(1-acryloyl-5,5-difluoropiperidin-3-yl)-4-amino-3-(4-phenoxyphenyl)-1H-pyrrolo[2,3-d]pyridazin-7(6H)-one] |
| ≤ 10 | C=CC(=O)N1CCCC(n2cc(-c3ccc(OC)cc3)c3c(N)n[nH]c(=O)c32)C1 (centres unmarked) [Example 51, 1-(1-acryloylpiperidin-3-yl)-4-amino-3-(4-methoxyphenyl)-1H-pyrrolo[2,3-d]pyridazin-7(6H)-one] |
| ≤ 10 | CN(C)C/C=C/C(=O)N1CCCC(n2cc(-c3ccc(Oc4cccc(Cl)c4)cc3)c3c(N)n[nH]c(=O)c32)C1 (centres unmarked) [Example 67, 4-amino-3-[4-(3-chlorophenoxy)phenyl]-1-[1-[(E)-4-(dimethylamino)but-2-enoyl]-3-piperidyl]-6H-pyrrolo[2,3-d]pyridazin-7-one] |
| 10 to 1000 | C=CC(=O)N1CCC[C@@H](n2c(F)c(-c3ccc(Oc4ccccc4)cc3)c3c(N)n[nH]c(=O)c32)C1 [Example 81, (R)-1-(1-acryloylpiperidin-3-yl)-4-amino-2-fluoro-3-(4-phenoxyphenyl)-1H-pyrrolo[2,3-d]pyridazin-7(6H)-one] |

Reference: US9951077B2, “Aminopyridazinone compounds as protein kinase inhibitors” (ETERNITY BIOSCIENCE INC., priority 2014, dated 2018)
